Bridge positions count the residues as written; N and C are the ends. Peptide text beside a SMILES is read from it.

Results on 14 molecules are retold here after patent US20050261472A1, “Binding moieties for fibrin” (Dyax Corp., priority 1999, published 2005).

One assay deals with T1, fibrin (Homo sapiens, UniProt P02671+P02675+P02679).
T1 construct: Thrombin cleavage at the Arg16-Arg17 bond in the Ax chains and at the Arg14-Gly15 bond on the BP chains releases fibrinopeptides A and B; host or cells: fibrinogen solution clotted with thrombin in 96-well plates and dried at 37 C
T1 sequence (P02671 36-629 limits assumed): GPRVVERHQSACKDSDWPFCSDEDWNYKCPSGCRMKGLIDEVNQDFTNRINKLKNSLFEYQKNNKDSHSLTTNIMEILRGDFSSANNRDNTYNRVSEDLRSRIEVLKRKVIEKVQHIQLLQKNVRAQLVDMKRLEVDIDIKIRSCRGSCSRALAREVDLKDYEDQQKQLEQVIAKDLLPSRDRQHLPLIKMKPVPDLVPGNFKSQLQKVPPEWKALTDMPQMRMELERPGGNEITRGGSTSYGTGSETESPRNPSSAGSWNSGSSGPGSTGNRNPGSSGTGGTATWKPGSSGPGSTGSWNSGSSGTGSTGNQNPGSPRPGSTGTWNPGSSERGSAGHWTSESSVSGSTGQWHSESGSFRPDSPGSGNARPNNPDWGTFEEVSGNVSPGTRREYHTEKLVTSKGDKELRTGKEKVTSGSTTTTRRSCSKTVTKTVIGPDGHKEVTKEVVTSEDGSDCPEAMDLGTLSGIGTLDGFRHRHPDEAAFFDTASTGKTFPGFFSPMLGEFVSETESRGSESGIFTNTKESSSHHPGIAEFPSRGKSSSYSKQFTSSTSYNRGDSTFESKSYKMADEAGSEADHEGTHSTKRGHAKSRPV
T1 sequence (P02675 45-491 limits assumed): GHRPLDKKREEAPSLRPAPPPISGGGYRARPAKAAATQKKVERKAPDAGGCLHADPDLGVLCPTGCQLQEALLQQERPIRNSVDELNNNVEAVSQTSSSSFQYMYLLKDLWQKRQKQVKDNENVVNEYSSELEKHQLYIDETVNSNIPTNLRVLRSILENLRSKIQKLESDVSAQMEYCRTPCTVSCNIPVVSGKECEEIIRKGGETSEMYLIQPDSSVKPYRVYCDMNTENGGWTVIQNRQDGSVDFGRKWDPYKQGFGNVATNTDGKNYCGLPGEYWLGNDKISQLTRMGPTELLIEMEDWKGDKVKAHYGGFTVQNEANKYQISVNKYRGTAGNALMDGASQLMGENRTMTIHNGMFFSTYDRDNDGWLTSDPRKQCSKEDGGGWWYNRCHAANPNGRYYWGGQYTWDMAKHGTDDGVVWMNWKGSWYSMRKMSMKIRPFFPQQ
T1 sequence (P02679 27-437 isoform P02679-2 limits assumed): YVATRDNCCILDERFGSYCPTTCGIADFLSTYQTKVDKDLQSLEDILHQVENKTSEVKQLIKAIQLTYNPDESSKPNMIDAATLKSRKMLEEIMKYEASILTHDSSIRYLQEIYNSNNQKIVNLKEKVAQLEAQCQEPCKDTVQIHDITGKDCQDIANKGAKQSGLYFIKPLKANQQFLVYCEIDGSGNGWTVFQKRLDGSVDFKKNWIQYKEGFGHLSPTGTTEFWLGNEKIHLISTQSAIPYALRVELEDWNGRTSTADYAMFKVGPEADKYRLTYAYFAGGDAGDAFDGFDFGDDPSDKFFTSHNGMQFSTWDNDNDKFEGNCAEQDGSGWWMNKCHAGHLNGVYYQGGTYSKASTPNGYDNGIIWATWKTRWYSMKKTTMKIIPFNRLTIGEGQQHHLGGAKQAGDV
Put plainly: dried fibrin plate ELISA of phage isolates. To be noted: phage isolates from TN7 library; symbols not defined. It is filed as binding. The method, then:
For screening libraries to isolate binding moieties for fibrin, two fibrin targets, i.e., synthetic fibrin clots and then a soluble fibrin fragment, DD(E), were prepared. To prepare fibrin for screening, dilute fibrin clots were formed in the wells of a 96-well plate, dried down to a thin layer, and then rehydrated prior to library screening. In a typical procedure, a 0.15 mg/ml fibrinogen solution was prepared in TBS buffer (50 mM Tris, 150 mM NaCl, pH 7.4). A solution containing 2 U/ml thrombin, 10 mM CaCl2, and 5 mM ε-aminocaproic acid in TBS was prepared. The fibrinogen solution and thrombin solution were mixed 1:1 in the wells of a 96-well plate, aliquoting 25 μL of each solution in each well (total volume=50 μL). The plates were evaporated to dryness by incubating them at 37° C. overnight. Just before a phage library was added to the dried fibrin target, the fibrin wells were washed three times for 10 minutes with phage blocking buffer (TBS containing 2 mM CaCl2, 0.1% Tween-20, and 0.1% human serum albumin (HSA)).
After five rounds of selection, the eluted phage were propagated and a portion plated to isolate phage plaques arising from individual clones. Ninety such clones were selected randomly, propagated, and tested individually for binding to fibrin in a dried fibrin plate assay. Dried fibrin plates were prepared as described above for the library screening. Phage samples (˜10^9 phage each) were incubated in the dried fibrin plate wells in binding buffer (50 mM Tris, 150 mM NaCl, 2 mM CaCl2, 0.05% Tween-20) containing 0.1% HSA. After 1 hour, the plates were washed 5 times with binding buffer. Anti-M13 antibody conjugated to horseradish peroxidase (Pharmacia) was added at 1/5000 dilution in binding buffer to the wells and incubated with the fibrin for 1 hour. The wells were again washed 5 times with binding buffer and the presence of the antibody/phage/fibrin complex was measured with HRP calorimetric reagents (3,3′,5,5′-tetrarnethylbenzidine (TMB) and H2O2). A high absorbance at 595 nm (due to oxidized TMB) was indicative of a tight phage/fibrin interaction, and phage clones corresponding to those wells were identified as bearing fibrin-binding moieties.
The amino acid sequence data from these phage isolates were sorted according to the degree of similarity and response in the fibrin ELISA assay.

The next assay addresses T2, DD(E) (Homo sapiens, UniProt P02671+P02675+P02679).
T2 construct: host or cells: purchased fibrinogen clotted with thrombin, digested with plasmin, then purified by ammonium sulfate cuts and Sephacryl S200
Put plainly: dissociation constant against fibrin-derived polypeptide DD(E). The conditions noted are these: read-out: Kd DD(E). It is filed as binding. As for the experimental part: The soluble fibrin-derived polypeptide DD(E) was prepared following a modification of a published method (Moskoitz and Budzynksi, Biochemistry, 33: 12937-12944 (1994) and references therein). Fibrinogen containing a Factor XIII trace impurity (1 g, Grade L; purchased from American Diagnostica) was dissolved in TBS buffer and dialyzed overnight against TBS containing 5 mM citrate. The fibrinogen concentration was adjusted to 3.0 mg/ml and CaCl2 was added to a concentration of 10 mM. Clotting of the fibrinogen was initiated by the addition of thrombin to 0.5 U/ml and the clot was incubated for 3 hours at 37° C. The clot was cut up with a spatula to release water and to concentrate the clot. The clot pieces were washed twice with TBS.Ca buffer (TBS containing 2 mM CaCl2) and were centrifuged at 4,000×g to compact the clots between washes. The clot material was resuspended in 250 ml TBS containing 25 mM CaCl2 and 2 K.I.U. plasmin per mg fibrin. The clots were digested overnight at 20° C. Undigested clot was removed by pipette, and the supernatant was shaken with 10 ml of Lysine Sepharose (Pharmacia) for 30 minutes and filtered to remove the resin. Aprotinin was added to the filtrate to a concentration of 500 U/μL. Ammonium Sulfate was added to 30% saturation and the precipitated protein was removed by centrifugation. More ammonium sulfate was added to the supernatant to a final concentration of 50% saturation, and the precipitated protein was concentrated by centrifugation. The pellets, containing DD(E), were resuspended in a small volume of buffer (50 mM Tris, 150 mM NaCl, 2 mM CaCl2) (<10 ml) and chromatographed on a Sephacryl S200 (Pharmacia) size exclusion column (5×100 cm) in the same buffer. Fractions of protein eluted from the column were assayed by SDS-PAGE for DD(E). DD(E) contains subunits of 55 kD (Fragment E) and 190 kD (Fragment DD). […]
Dissociation constants were determined against DD(E) as described above.

A further assay deals with T3, dried fibrin (Homo sapiens, UniProt P02671+P02675+P02679).
T3 construct: Thrombin cleavage at the Arg16-Arg17 bond in the Ax chains and at the Arg14-Gly15 bond on the BP chains releases fibrinopeptides A and B; host or cells: fibrinogen solution clotted with thrombin in 96-well plates and dried at 37 C
T3 sequence (P02671 36-629 limits assumed): T1 sequence (P02671 36-629 limits assumed)
T3 sequence (P02675 45-491 limits assumed): T1 sequence (P02675 45-491 limits assumed)
T3 sequence (P02679 27-437 isoform P02679-2 limits assumed): T1 sequence (P02679 27-437 isoform P02679-2 limits assumed)
Put plainly: dissociation constant against dried fibrin (free peptide by mass spectrometry). It is filed as binding. As for the experimental part:
A fibrinogen solution was prepared at 10 mg/ml (or at twice the concentration of fibrin desired) in TBS buffer (50 mM Tris, 150 mM NaCl, pH 7.4). The fibrinogen solution typically contained ˜17 mM citrate. Subsequently, a solution was prepared containing 2 U/ml thrombin, 20 mM CaCl2, and 5 mM ε-aminocaproic acid in TBS. The fibrinogen solution and thrombin solution were mixed 1:1 in the wells of a 96-well plate, aliquoting 50 μL of each solution in each well (total volume=100 μL). The plates were evaporated to dryness overnight at 37° C. The polypeptide to be tested, dissolved in water, was added to each well at concentrations between 1-200 μM. A typical binding assay contained 24 points at concentrations of 2, 4, 6, 8, 10, 12, 14, 17, 20, 23, 26, 30, 35, 40, 45, 50, 60, 70, 80, 100, 125, 150, 175, and 200 μM. The plate containing the peptide and (rehydrated) dried fibrin was covered and incubated at 37° C. on a shaker table for 2 hours.
The supernatant in each well was removed by pipette and the concentration of the polypeptide was measured by mass spectrometry. The ion current detected at the mass of the peptide was monitored after injection of a sample into the mass spectrometer. The area-under-the-peak was quantitated and compared to standards of known concentration. The concentration of peptide in the supernatant is equal to the concentration of free peptide. The concentration of bound peptide was determined by subtracting the concentration of free peptide from the total (starting) concentration. A plot of [Bound Peptide] vs. [Free Peptide] was used to determine the Kd and the concentration of bound peptide at saturation. The curve was fit to the equation: [Bound]=N×[Free]/(Kd+[Free]) where [Bound] is the concentration of bound polypeptide, [Free] is the concentration of free polypeptide, Kd is the dissociation constant (equal to the reciprocal of Ka) and N is the concentration of binding sites. The number of binding sites per fibrin molecule was equal to the lo concentration of binding sites determined by the [Bound Polypeptide] vs. [Free Polypeptide] plot, divided by the concentration of fibrin (15 μM) used in the assay.

Assay [1] concerns the target DD(E) soluble fibrin-derived polypeptide (UniProt P02671). Put plainly: Kd against DD(E) target, 'as described above'.

Take “10 (FSCWYSLHCHR; synthetic fibrin binding peptide) [compound 10]”: the relative binding entry in the assay with fibrin is “+ + +”.
For the molecule `CC(C)C[C@H](NC(=O)[C@@H]1CSSC[C@H](NC(=O)[C@@H]2CCCN2C(=O)[C@@H](N)CC(C)C)C(=O)N[C@@H](CC(=O)O)C(=O)N[C@@H](Cc2ccc(O)cc2)C(=O)N[C@@H](Cc2ccc(O)cc2)C(=O)NCC(=O)N[C@@H](C)C(=O)N1)C(=O)N[C@@H](CC(=O)O)C(N)=O` [SEQ ID NO: 46, LPCDYYGACLD] (H-LPCDYYGACLD-NH2; disulfide 3-9), the equilibrium dissociation constant (Kd) at DD(E) and at dried fibrin was greater than 100 µM in each case.
“9 (LPCDYYGTCLD; synthetic fibrin binding peptide) [compound 9]”: the relative binding result in the assay with fibrin is recorded as “+ + +”.
For `CC(C)C[C@H](NC(=O)[C@@H]1CSSC[C@H](NC(=O)[C@H](C)NC(=O)[C@@H](N)Cc2ccccc2)C(=O)N[C@@H](Cc2c[nH]cn2)C(=O)N[C@@H](Cc2ccc(O)cc2)C(=O)N[C@@H](Cc2ccc(O)cc2)C(=O)NCC(=O)N[C@@H]([C@@H](C)O)C(=O)N1)C(=O)N[C@@H](Cc1c[nH]cn1)C(N)=O` [SEQ ID NO: 7, FACHYYGTCLH] (H-FACHYYGTCLH-NH2; disulfide 3-9), the figures for the equilibrium dissociation constant (Kd) on DD(E) and at dried fibrin were 7.3 µM and 23 µM, respectively.
H-LPSDYYGTSLD-NH2 [compound 38]: the Kd at DD(E) and at dried fibrin was greater than 100 µM each time.
Take `CC(C)C[C@H](NC(=O)[C@@H]1CSSC[C@H](NC(=O)[C@@H]2CCCN2C(=O)[C@@H](N)CC(C)C)C(=O)N[C@@H](C)C(=O)N[C@@H](Cc2ccc(O)cc2)C(=O)N[C@@H](Cc2ccc(O)cc2)C(=O)NCC(=O)N[C@@H]([C@@H](C)O)C(=O)N1)C(=O)N[C@@H](CC(=O)O)C(N)=O` [SEQ ID NO: 42, LPCAYYGTCLD] (H-LPCAYYGTCLD-NH2; disulfide 3-9): the dissociation constant (Kd) was 5.9 µM at DD(E) and 23 µM at dried fibrin.
For “6 (HDCQYYGTCLH; synthetic fibrin binding peptide) [compound 6]”, the relative binding entry with fibrin is “+ + +”.
On to “5 (RSCNYYGTCLH; synthetic fibrin binding peptide) [compound 5]”, for which the relative binding result with fibrin is “+ + +”.
With “7 (FACHYYGTCLH; synthetic fibrin binding peptide) [compound 7]”, in the assay with fibrin, the relative binding result is “+ + +”.
For the molecule `CC(C)CC(N)C(=O)N1CCCC1C(=O)NC1CSSCC(C(=O)NC(CC(C)C)C(=O)NC(CC(=O)O)C(N)=O)NC(=O)C(C(C)O)NC(=O)CNC(=O)C(Cc2ccc(O)cc2)NC(=O)C(Cc2ccc(O)cc2)NC(=O)C(CC(=O)O)NC1=O` (stereo not shown) [SEQ ID NO: 9, LPCDYYGTCLD], the Kd on DD(E) was found to be 2.6 µM; on dried fibrin, 2.7 µM.
Take “8 (RPCDYYGTCFD; synthetic fibrin binding peptide) [compound 8]”: the relative binding entry with fibrin is listed as “+ + +”.
On the same count and under the same terms, then “4 (YYGT; recurrent motif among synthetic fibrin binding peptides) [compound 4]”, with “+ + +”.

B1: TN10-9 phage isolate … (peptide, not shown: large carriers)
peptide: RFLCYDSYYHWWCSHH
As to B1, the Kd in assay [1] is 10 µM.

B2: TN10-9 phage isolate … (peptide, not shown: large carriers)
peptide: NHGCYNSYGVPYCDYS
Turning to B2, the Kd in assay [1] worked out at 2.7 µM.

Usually Kd stands for the constant that tells how readily two partners part at equilibrium.
